Measurements as given in US20130225611A1, “Compositions and Methods for Reducing Cancer Cell Proliferation and Modulating Importin-Beta Function” (THE REGENTS OF THE UNIVERSITY OF CALIFORNIA, priority 2011, published 2013).
In brackets after ≈: the same amount, converted by molar mass.

Key:
[1] = system: CRM1-mediated export of NFAT-GFP; assay: NFAT-GFP nuclear export after ionomycin washout in HEK 293 cells; type: cell-based, human; settings: HEK 293, importazole 40 μM, leptomycin B 10 ng/ml, 1 hour after ionomycin washout
Description: For all import and export experiments, HEK 293 cells stably expressing NFAT-GFP were grown on glass coverslips to approximately 50% confluency prior to drug treatment. In all cases, importazole was used at 40 μM and leptomycin B was used at 10 ng/ml. For controls, DMSO was used at a concentration of 0.4%. Ionomycin was added at 1.25 μM. Importazole and leptomycin B treatments were all for 1 hour. In all experiments cells were fixed with 4% formaldehyde prior to fluorescence microscopy. DNA was visualized with 1 μg/ml Hoechst dye.

[2] = system: nuclear import mediated by transportin; assay: nuclear import of M9-YFP in permeabilized HeLa cells; type: cell-based, human; settings: permeabilized HeLa cells plus Xenopus egg extract
solubility in water = type: physicochemical
transportin = target: T1, transportin (Homo sapiens, UniProt Q92973); assay: fluorescent thermal shift assay (Sypro Orange), transportin; type: binding; settings: 2 μM protein, 50 μM importazole
T1 construct: made in house; host or cells: SG13 cells (E. coli)
T1 sequence (Q92973 1-898): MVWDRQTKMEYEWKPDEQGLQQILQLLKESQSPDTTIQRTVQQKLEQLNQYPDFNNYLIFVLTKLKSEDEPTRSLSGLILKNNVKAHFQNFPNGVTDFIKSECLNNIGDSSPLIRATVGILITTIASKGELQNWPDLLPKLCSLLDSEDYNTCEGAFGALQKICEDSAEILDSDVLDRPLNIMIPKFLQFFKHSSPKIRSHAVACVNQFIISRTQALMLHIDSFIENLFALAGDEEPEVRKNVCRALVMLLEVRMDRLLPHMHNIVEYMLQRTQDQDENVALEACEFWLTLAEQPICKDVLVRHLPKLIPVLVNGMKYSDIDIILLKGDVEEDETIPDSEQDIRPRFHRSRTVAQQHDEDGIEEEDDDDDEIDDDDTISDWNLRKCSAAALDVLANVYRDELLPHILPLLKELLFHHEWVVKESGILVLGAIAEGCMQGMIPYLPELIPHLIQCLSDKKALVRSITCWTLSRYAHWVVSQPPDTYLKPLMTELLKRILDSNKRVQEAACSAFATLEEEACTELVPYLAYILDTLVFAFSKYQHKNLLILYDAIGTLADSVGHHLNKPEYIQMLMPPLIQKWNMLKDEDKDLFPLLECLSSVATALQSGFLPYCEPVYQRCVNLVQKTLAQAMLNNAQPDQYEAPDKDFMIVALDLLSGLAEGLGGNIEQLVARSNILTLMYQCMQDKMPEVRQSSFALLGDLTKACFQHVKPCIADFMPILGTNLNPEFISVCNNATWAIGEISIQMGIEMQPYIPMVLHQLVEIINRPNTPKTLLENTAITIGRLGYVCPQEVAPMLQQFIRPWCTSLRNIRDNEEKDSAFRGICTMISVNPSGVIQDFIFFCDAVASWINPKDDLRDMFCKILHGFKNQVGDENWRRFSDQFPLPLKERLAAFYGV
Description: Experiments were performed using Applied Biosystems StepOnePlus™ Real-Time polymerase chain reaction (RT-PCR) System. Protein stocks were diluted in PBS and added 70% v/v to a Microamp® Fast 96-well Reaction Plate and maintained on ice. Compounds (importazole and control compound 3016) were then added at 30% v/v in 3% DMSO. Freshly prepared 100× water based-dilution of Sypro® Orange Protein Gel Stain was then added at 1% v/v to reach a final reaction volume of 20 μl. Samples were mixed by gentle pipetting. After sealing the plates with Microamp™ Optical Adhesive Film, the plate was subjected to a heating cycle composed of a 10 sec prewarming step at 25° C. and a gradient between 25° C. and 95° C. with a 0.3° C. ramp. Data was analyzed using the StepOnePlus™ Software v2.1.

[3] = system: importin-β/RanGTP-mediated nuclear import; assay: nuclear import of GFP-NLS reporter in permeabilized HeLa cells; type: cell-based, human; settings: 100 μM importazole, permeabilized HeLa cells plus Xenopus egg extract
Description: Because importazole binds importin-β and affects the RanGTP/importin-β interaction, importazole was tested to determine whether it inhibits the nuclear import of any protein bearing a classical nuclear localization signal (NLS). This was first tested using permeabilized HeLa cells, in which nuclear import of a GFP-NLS reporter can be reconstituted in vitro. Digitonin-permeabilized cells were incubated with a GFP-NLS reporter plus Xenopus laevis egg extracts as a source of soluble transport factors including Ran, importin-α, and importin-β.
HeLa cells were permeabilized and treated with an import reporter and cytosol from Xenopus laevis […] as described by Adam et al. (1990) J. Cell Biol. 111:807-816.

[4] = system: mitotic importin-β cargo release; assay: Rango-3 FRET sensor FLIM in mitotic HeLa cells; type: cell-based, human; settings: DMSO controls 0.12+/−0.4 ns
Excerpt: A key feature of importazole, a cell-permeable importin-β/RanGTP inhibitor, is its ability to dissect novel roles of this pathway in dividing human cells, which also provide a system to analyze mitotic gradients of released cargos using FRET probes. If importazole disrupts the interaction of importin-β with RanGTP, then the chromatin-localized FRET gradient of the cargo probe Rango should be reduced, since it undergoes FRET when released from importin-β in HeLa cells. […] Thus, importazole impairs mitotic importin-β cargo release in HeLa cells.
The Rango-3 FRET sensor is an improved version of Rango and was created by replacing Cerulean-EYFP donor-acceptor pair in Rango with EGFP as a donor and non-fluorescent acceptor sREACh which was modified by the introduction of mild dimerization mutations. […] The emission was collected from a custom side port, filtered through a 525 nm bandpass filter (ET525/50 Chroma) and detected by a HPM-100-40 module (Becker & Hickl) containing a hybrid Hamamatsu R10467-40 GaAsP photomultiplier. Two to three days before the experiment, HeLa cells were transfected with a pSG8 plasmid containing the Rango-3 open reading frame (pK135) to induce sensor expression. […] Fluorescence lifetime images were produced and analyzed using SPCI software (Becker & Hickl).

- solubility (solubility in water): ~100 µM (≈ 31.8 µg/mL)
Compound: CC(Nc1nc(N2CCCC2)nc2ccccc12)c1ccccc1 (stereo not drawn) [importazole, (1-phenyl-ethyl)-(2-pyrrolidin-1-yl-quinazolin-4-yl)-amine]
- CRM1-mediated export of NFAT-GFP [1]: occurred efficiently
- transportin-mediated nuclear import (M9-YFP) [2]: did not block nuclear import
- effect on melting curve of transportin (transportin): did not significantly affect the melting curves
- nuclear import of GFP-NLS reporter [3]: blocked import
- difference in fluorescence lifetime of Rango-3 donor GFP between chromosomes and distal cytoplasm [4]: 0.07+/−0.03 ns
